Test: gradient 5% acetonitrile 3 min, to 50% in 2 min, to 85% in 15 min, held 3 min, 100 µL/min
Conditions: column: Zorbax Extend-C18 2.1 x 50 mm; eluents: water / acetonitrile, 0.1% formic acid
Method in brief: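 Over 3 months, pure standards in mixtures of ~100 molecules were run by HPLC coupled to a quadrupole time-of-flight mass spectrometer in positive and negative ionization mode. The column was a Zorbax Extend-C18 (2.1 × 50 mm, 1.8 μm) at 100 μL/min, eluted with water and acetonitrile each holding 0.1% formic acid, with 40 μL dead and 900 μL dwell volumes. Retention time was determined from adduct peaks chosen by software and checked manually.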

Work on `CC(C)N1C(=O)c2cccnc2Sc2cc(C(=O)N3CCN(C)CC3)ccc21` yielded an RP-LC retention time of 582 s.

In the case of `O=C(c1cccn1Cc1noc(-c2ccc(Cl)cc2)n1)N1CCCCCC1`, the RP-LC retention time is reported as 1160 s.

`CCN(CC)c1ccc(NC(=O)C2C(=O)NC3(C)CC2c2ccccc2O3)c(C)c1` (stereo not given) gave an RP-LC retention time of 640 s.

`COc1ccc(-c2noc(NCCc3ccc(OC)c(OC)c3)n2)cc1` gave an RP-LC retention time of 891 s.

Work on `Cc1sc2ccn(CC(C)C)c(=O)c2c1C(=O)N1CCCCC1` yielded an RP-LC retention time of 837 s.

`CCn1c(C)c(CCC(=O)NCC2CCCO2)c(=O)n2nc(-c3ccccc3)nc12` (stereo not given) showed an RP-LC retention time of 691 s.

Compound `Cc1c(C(=O)O)nnn1-c1ccc2noc(-c3ccccc3)c2c1` has an RP-LC retention time of 775 s.

With `CCCCc1cc(=O)oc2cc(C)cc(OC(C)C(=O)N3CCC4(O)CCCCC4C3)c12` (stereo not given) the RP-LC retention time was 952 s.

`NS(=O)(=O)c1ccc(CCNC(=O)c2cccc(-n3cnnn3)c2)cc1` showed an RP-LC retention time of 617 s.

For `O=C(CN1C(=O)CCC1=O)N1CCC(c2noc(-c3ccccn3)n2)C1` (stereo not given), the RP-LC retention time was 608 s.

Compound `O=C(NCC1CCN(C(=O)c2ccccc2F)CC1)c1ccc(Cl)s1` has an RP-LC retention time of 781 s.

With `CCSc1nnc(NC(=O)c2nn(-c3ccc(F)cc3)cc2OC)s1` the RP-LC retention time was 881 s.

For `CCN1CCN(CCNC(=O)C2CCCN(c3ncc(-c4cccc(F)c4)cn3)C2)CC1` (stereo not given), the RP-LC retention time was 632 s.

`COc1ccc(Cl)cc1NC(=O)Cn1c(N2CCOCC2)nc(C)cc1=O` showed an RP-LC retention time of 772 s.

For `Cc1ccc(NC(=O)Nc2nccn(-c3ccc(F)cc3)c2=O)cc1C`, the RP-LC retention time was 1020 s.

Compound `O=C(NCc1ccc2c(c1)OCO2)c1nnc(-c2ccc(S(=O)(=O)N3CCCCC3)cc2)o1` has an RP-LC retention time of 948 s.

Compound `CCn1c(=O)c2ccccc2n(Cc2nc(-c3ccc(Cl)c(F)c3)no2)c1=O` has an RP-LC retention time of 1140 s.

`COc1cc(C(=O)Nc2noc3ncccc23)cc(OC)c1OC` gave an RP-LC retention time of 620 s.

In the case of `COc1ccc(OC)c(NC(=O)Cn2c(N3CCOCC3)nc(C)cc2=O)c1`, the RP-LC retention time is reported as 695 s.

For `COc1ccc(Br)cc1CNC(=O)Cn1cnc2nc3c(cc2c1=O)CCCC3`, the RP-LC retention time was 777 s.

For `Cc1ccc(-c2cc(C(=O)N3CCC(NC(=O)c4cc(C5CC5)[nH]n4)CC3)[nH]n2)cc1C`, the RP-LC retention time was 698 s.

`COc1ccc(NC(=O)Cn2cccc(-c3nc(-c4ccc(OC)c(OC)c4)no3)c2=O)cc1OC` gave an RP-LC retention time of 722 s.

Work on `COC(=O)c1c(NCCO)c2cc(F)ccc2[nH]c1=O` yielded an RP-LC retention time of 590 s.

Work on `Cc1ccc(CNC(=O)c2cc3c(=O)n(C)ccc3n2C)o1` yielded an RP-LC retention time of 668 s.

With `COc1cccc(N2CCN(C(=O)C3CCCN(c4cnc5nccnc5c4)C3)CC2)c1` (stereo not given) the RP-LC retention time was 737 s.

With `Cc1cc2nn(CC(=O)Nc3cccc(F)c3)c(=O)n2c(Nc2ccc(F)cc2)n1` the RP-LC retention time was 981 s.

`COc1ccc(CN2C(=O)C3(CCOCC3)CC2c2nnnn2C(C)(C)C)cc1` (stereo not given) gave an RP-LC retention time of 760 s.

For `CCOC(=O)c1noc2ncnc(NCCc3ccc(C)cc3)c12`, the RP-LC retention time was 1060 s.

`Cc1cc(=O)n(CC(=O)Nc2cc(F)ccc2F)c(N2CCCCC2)n1` gave an RP-LC retention time of 708 s.

Work on `Cc1cc(C)c2c(N3CCCC3)nc(C(=O)NCc3cccnc3)nc2n1` yielded an RP-LC retention time of 537 s.

Work on `O=c1ccc(-c2ccc3c(c2)OCO3)nn1Cc1nc(-c2ccccc2)no1` yielded an RP-LC retention time of 939 s.

`Cc1ccccc1Cn1cc(CCC(=O)NCCN2CCOCC2)c2ccccc21` gave an RP-LC retention time of 639 s.

`Cc1cc(=O)n(CC(=O)Nc2ccccc2F)c(-c2ccc(F)cc2)n1` showed an RP-LC retention time of 1040 s.

Compound `O=C(NCc1csc(-c2cccs2)n1)C1CCN(C(=O)CCc2ccccc2)CC1` has an RP-LC retention time of 805 s.

Work on `COc1cc(NS(=O)(=O)c2ccc(Nc3nc(-c4ccc(C)c(C)c4)cs3)cc2)nc(OC)n1` yielded an RP-LC retention time of 1190 s.

Compound `Cc1ncsc1CN1CCC2(CC1)CC(Cc1ccc(F)cc1)CCO2` (stereo not given) has an RP-LC retention time of 556 s.

`CCN1CCn2cc(S(=O)(=O)Nc3cc(C)ccc3F)cc2C1=O` showed an RP-LC retention time of 751 s.

With `CCN1CCN(c2nc3cc(C(=O)OC)ccc3c(=O)n2-c2cccc(Cl)c2)CC1` the RP-LC retention time was 665 s.

In the case of `COc1cc(-c2nc3ncccn3c2Nc2c(C)cccc2C)ccc1O`, the RP-LC retention time is reported as 683 s.

Work on `COc1ccc(NC(=O)c2c(O)c3cccnc3n(-c3cccc(F)c3)c2=O)cc1` yielded an RP-LC retention time of 1190 s.

Work on `Cc1nnc(NC(=O)CSc2nnc(CCc3nc4ccccc4[nH]3)o2)s1` yielded an RP-LC retention time of 542 s.

`Cc1cc(=O)oc2cc(OS(C)(=O)=O)ccc12` showed an RP-LC retention time of 782 s.

In the case of `CN(C)C(=O)c1ccc2c(c1)nc(CN(C)C(=O)Nc1cccc(Br)c1)n2C`, the RP-LC retention time is reported as 642 s.

For `COc1ccc(C(CNC(=O)c2cc(=O)c3cc(C)c(C)cc3o2)N(C)C)cc1` (stereo not given), the RP-LC retention time was 644 s.

Compound `CSc1ccc(-c2nc3ccc(C)cn3c2Nc2ccc(Cl)cc2)cc1` has an RP-LC retention time of 693 s.

For `CSc1nc(N2CCCC2)c2cnn(CCNC(=O)c3cc(-c4ccco4)on3)c2n1`, the RP-LC retention time was 849 s.

With `COC(=O)CCCC(=O)Nc1ccc2[nH]c(=O)oc2c1` the RP-LC retention time was 608 s.

With `COc1ccc(NC(=O)N2CCC3(C2)C(=O)N(C)c2ccccc23)cc1F` (stereo not given) the RP-LC retention time was 785 s.

`CCOC(=O)c1cccc(Nc2c(-c3ccccc3)nc3cnccn23)c1` gave an RP-LC retention time of 875 s.

`CN1C(=O)c2cccn2CC1CNS(=O)(=O)c1ccccc1` (stereo not given) showed an RP-LC retention time of 668 s.

`COc1ccc(Br)c2c1C(=O)CC2` showed an RP-LC retention time of 826 s.

For `CCN1C(=O)c2c(C(=O)NCc3cccc(Cl)c3)ncn2CC1(C)C(=O)NC1CCCC1` (stereo not given), the RP-LC retention time was 804 s.

Compound `CCn1cc(C(=O)N2CCCc3ccccc32)c2nn(-c3ccccc3)c(=O)c-2c1` has an RP-LC retention time of 788 s.

In the case of `O=C(c1noc2c1CCCCC2)N1CCN(c2ccccn2)CC1`, the RP-LC retention time is reported as 632 s.

Work on `CCn1c(=O)n(CC)c2cc(S(=O)(=O)c3ccc(C)cc3)c(NC(=O)C3CC3)cc21` yielded an RP-LC retention time of 873 s.

`O=C(COc1cccc(C(F)(F)F)c1)Nc1cc(N2CCOCC2)ncn1` gave an RP-LC retention time of 775 s.

For `Cc1nc(-c2cn(C)c3ncccc23)sc1C(=O)NC1CCCCCC1`, the RP-LC retention time was 995 s.

In the case of `COc1cccc(Cn2cccc2-c2nc(-c3ccncc3)no2)c1`, the RP-LC retention time is reported as 1060 s.

In the case of `CSc1ncccc1C(=O)NCc1ccc2c(c1)ncn2C(C)C`, the RP-LC retention time is reported as 585 s.

In the case of `CC1CCCCN1CCNC(=O)c1nc2nc(-c3ccco3)cc(C(F)(F)F)n2n1` (stereo not given), the RP-LC retention time is reported as 628 s.

`O=C(CCc1c(-c2ccc(Br)cc2)nc2ccccn12)NCCc1ccco1` showed an RP-LC retention time of 678 s.

With `COc1ccc(C2CCCN2C(=O)c2ccn(C)n2)cc1` (stereo not given) the RP-LC retention time was 730 s.

In the case of `O=C(CCC1NC(=O)c2ccccc2NC1=O)NCc1nc(-c2ccccc2)no1` (stereo not given), the RP-LC retention time is reported as 624 s.

With `CC(NC(=O)CC1CCN(S(=O)(=O)c2ccccc2)CC1)c1ccc2c(c1)OCCO2` (stereo not given) the RP-LC retention time was 846 s.

For `O=C(N[C@@H]1CN(c2ncccn2)C[C@H]1CO)c1ccc(Cl)cc1`, the RP-LC retention time was 628 s.

Work on `CN1c2ccc(F)cc2C(=O)NC12CCN(C(=O)c1ccc(Cl)cc1)CC2` yielded an RP-LC retention time of 785 s.

`CCc1nc2ccc(-c3noc(-c4ccsc4)n3)cc2n1CC` gave an RP-LC retention time of 698 s.

Work on `CC(C)NC(=O)C1CCN(S(=O)(=O)c2cc(C(=O)N3CCCCCC3)cs2)CC1` yielded an RP-LC retention time of 767 s.

Compound `Cc1cccc(C)c1NC(=O)Cn1nc(N2CCC(C)CC2)c2ccccc2c1=O` has an RP-LC retention time of 1240 s.

With `COCCCNc1c(-c2ccc(C)cc2)nc2sc(C(N)=O)c(C)n12` the RP-LC retention time was 705 s.

In the case of `O=C(Cc1cccs1)N1CCN(C(=O)c2cc3ccccc3[nH]2)CC1`, the RP-LC retention time is reported as 767 s.

Compound `CCSC1=C(C#N)C(c2ccccc2Cl)C(C(=O)Nc2ccccc2C)=C(C)N1` (stereo not given) has an RP-LC retention time of 862 s.

For `CC(C)c1nnc(NC(=O)CCCOc2ccc(Cl)cc2)s1`, the RP-LC retention time was 876 s.

For `Cc1cccc(S(=O)(=O)N2CCC(CN3CCCCCC3)CC2)c1`, the RP-LC retention time was 672 s.

`COc1ccc(S(=O)(=O)N2CCCC(C(=O)N3CCN(Cc4ccccc4)CC3)C2)cc1Cl` (stereo not given) showed an RP-LC retention time of 707 s.

For `O=C(Nc1cccc(Cl)c1)N1CCCC1c1nc(-c2ccc(F)cc2F)no1` (stereo not given), the RP-LC retention time was 1030 s.

Work on `O=C(c1cccc(Cl)c1)N1CCN(c2cc(-c3cccnc3)[nH]n2)CC1` yielded an RP-LC retention time of 621 s.

`CCN(Cc1cn(C)nc1C)C(=O)C1CN(C(=O)c2ccccc2)CC12CCCCC2` (stereo not given) gave an RP-LC retention time of 793 s.

`COc1ccccc1-c1noc(C2CCCN2C(=O)c2ccccc2C)n1` (stereo not given) showed an RP-LC retention time of 896 s.

With `CCOc1ccccc1-c1noc(Cn2c(=O)n(Cc3ccc(F)cc3)c(=O)c3sccc32)n1` the RP-LC retention time was 1100 s.

Compound `COc1ncccc1CNC(=O)COc1ccccc1` has an RP-LC retention time of 677 s.

For `COc1ccc(NC(=O)c2nc3nc(C)cc(C(F)F)n3n2)cc1Cl`, the RP-LC retention time was 813 s.

In the case of `O=C1CN(S(=O)(=O)c2cccc(C(F)(F)F)c2)CC2(CCCCC2)N1C1CCCC1`, the RP-LC retention time is reported as 1250 s.

Compound `Cc1cc(C(=O)NCc2cccc(F)c2)nc2cc(-c3cccs3)nn12` has an RP-LC retention time of 1090 s.

For `CCCN(c1cccc(Cl)c1)c1nc(C(=O)OCC)nc2ccccc12`, the RP-LC retention time was 1200 s.

`Cc1nn2c(CNS(=O)(=O)c3ccc(C)c(C)c3)c(-c3ccccc3)nc2s1` gave an RP-LC retention time of 916 s.

`COc1ccc(Nc2ncccc2S(N)(=O)=O)cc1Cl` gave an RP-LC retention time of 801 s.

`CCn1c(=O)oc2cc(-c3noc(-c4ccc(Cl)cc4OC)n3)ccc21` gave an RP-LC retention time of 1170 s.

In the case of `Cc1ccccc1CNC(=O)Cn1cccc1-c1nnc(-c2ccccc2)o1`, the RP-LC retention time is reported as 950 s.

`Cc1ccc(CNC(=O)NCCCn2c(-c3ccncc3)nc3cccnc32)cc1` showed an RP-LC retention time of 651 s.
